# Strand notation (5' to 3'): a small letter for the sugar, then the base; units joined by * are phosphorothioate-linked, units joined directly phosphodiester-linked; [ ] holds rarer units or linkages, { } end groups; capitals alone tell only the bases. e = 2'-O-(2-methoxyethyl) (MOE); [5mC] = 5-methylcytosine; d = 2'-deoxy (DNA)
# Test system: human PKK mRNA
# Test: Antisense inhibition of human PKK mRNA in HepaRG cells, 3,000 nM (Example 1)
# Assay type: cell-based
# Details: relative to untreated control cells
# How it was run: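 Values give percent PKK mRNA reduction relative to untreated controls, normalised to RIBOGREEN total RNA. mRNA was quantified by real-time PCR (RTS3454) about 24 h after electroporation. Each 20-mer MOE gapmer was delivered at 3,000 nM into 20,000 HepaRG cells per well.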
# [1] = Table 1, PKK mRNA, HepaRG cells, 3,000 nM, electroporation, ~24 h
# [2] = Table 3, HepaRG cells, electroporation with 3,000 nM antisense oligonucleotide, approx. 24 hours, PKK mRNA by RT-PCR (RTS3454)
# [3] = Table 2, PKK mRNA, HepaRG cells, 3,000 nM, electroporation, ~24 h
# [4] = Table 4, HepaRG cells, electroporation with 3,000 nM antisense oligonucleotide, approx. 24 hours, PKK mRNA by RT-PCR (RTS3454)
substance,measurement,setting,value
530997 (eA*eA*eA*eA*e[5mC]*dT*dG*dA*d[5mC]*dA*dG*d[5mC]*dG*dA*dA*eT*e[5mC]*eA*eT*e[5mC]; antisense) [compound 530997],% inhibition,[1],39%
531152 (antisense eG*eT*eT*eA*eT*dG*dG*dA*dT*dA*dT*dA*dG*dA*d[5mC]*eT*eT*eT*eA*eA) [compound 531152],% inhibition,[2],0%
530931 (antisense e[5mC]*eT*eT*eA*eA*dA*dA*dA*dT*dG*dA*dA*d[5mC]*dG*dG*eT*e[5mC]*eT*eT*e[5mC]) [compound 530931],% inhibition,[1],29%
531076 (eA*e[5mC]*eT*e[5mC]*eT*d[5mC]*d[5mC]*dA*dT*dG*d[5mC]*dT*dT*dT*dG*e[5mC]*eA*eG*eA*eT; antisense) [compound 531076],% inhibition,[3],68%
531173 (antisense eA*eA*eA*eA*eT*dA*dA*d[5mC]*dT*dT*d[5mC]*dA*d[5mC]*dT*dA*eG*eA*eG*e[5mC]*eT) [compound 531173],% inhibition,[4],22%
530940 (antisense eT*eA*eG*e[5mC]*eA*dA*dA*d[5mC]*dA*dA*dG*dG*dA*dA*dA*eT*eG*eA*eA*eA) [compound 530940],% inhibition,[1],7%
531023 (e[5mC]*eT*eT*eT*eT*dG*dT*dA*dA*dT*dG*dT*d[5mC]*dT*dG*eA*e[5mC]*eA*eG*eA; antisense) [compound 531023],% inhibition,[3],71%
531220 (e[5mC]*eA*eA*eT*eA*d[5mC]*dA*dG*dG*dT*dA*dA*dA*dT*dT*eT*e[5mC]*eA*e[5mC]*eG; antisense) [compound 531220],% inhibition,[4],56%
531150 (antisense eT*e[5mC]*e[5mC]*eT*eT*dA*dA*dT*dA*dG*dT*d[5mC]*dA*dT*dA*eG*e[5mC]*eA*eG*eG) [compound 531150],% inhibition,[2],48%
531043 (antisense eA*eT*eT*eT*eG*dT*dT*dA*d[5mC]*d[5mC]*dA*dA*dA*dG*dG*eA*eA*eT*eA*eT) [compound 531043],% inhibition,[3],27%
531016 (eT*eG*eT*e[5mC]*e[5mC]*dT*dA*dT*dG*dA*dG*dT*dG*dA*d[5mC]*e[5mC]*e[5mC]*eT*e[5mC]*e[5mC]; antisense) [compound 531016],% inhibition,[3],39%
530981 (antisense eT*eT*e[5mC]*eT*eT*dT*dT*dG*d[5mC]*dA*dG*dG*dT*dT*dA*eA*eA*eA*eG*eG) [compound 530981],% inhibition,[1],0%
531230 (e[5mC]*eT*eT*eA*e[5mC]*dT*dG*dG*dG*d[5mC]*dT*dA*dA*dA*dA*eT*e[5mC]*eA*eA*eG; antisense) [compound 531230],% inhibition,[4],46%
531159 (antisense eA*eT*eT*eT*eG*dT*dT*dA*dA*dA*dA*dG*dT*dT*dG*e[5mC]*eT*eT*eA*eT) [compound 531159],% inhibition,[2],0%
